Measured values taken from patent publication EP4790046A1, “NOVEL COMPOUND DERIVED FROM MYRISTICA FRAGRANS, AND ANTICANCER COMPOSITION COMPRISING SAME” (Korea Institute of Science and Technology, priority 2023, dated 2025).
Like-named read-outs stand apart in the source and are kept apart here.

Key:
SNU466 = assay: alamarBlue cell viability (survival rate), SNU466; assay type: cell-based; details: SNU466 (glioblastoma), compound 10 µM, 48 hours; for viability at 10 µM: read-out: Cancer cell line survival rate (%)
Source text: (§1) A p-value < 0.05 was considered statistically significant.

SNU201 = assay: alamarBlue cell viability (survival rate), SNU201; assay type: cell-based; details: SNU201 (glioblastoma), compound 10 µM, 48 hours; for viability at 10 µM: read-out: Cancer cell line survival rate (%)
Source text: as §1

HepG2 = assay: alamarBlue cell viability (survival rate), HepG2; assay type: cell-based; details: HepG2 (liver cancer), compound 10 µM, 48 hours; for viability at 10 µM: Homo sapiens, read-out: Cancer cell line survival rate (%)
Source text: as §1

SW48 = assay: alamarBlue cell viability (survival rate, IC50), SW48; assay type: cell-based; details: SW48 (colorectal cancer); for Cancer cell line survival rate (%) / viability at 10 µM: compound 10 µM, 48 hours; for IC50 / viability at 10 µM: Homo sapiens; for IC50: 2.5-40 µM, positive control = oxaliplatin; for viability at 10 µM: read-out: Cancer cell line survival rate (%)
Source text: as §1

SNU-719 = assay: alamarBlue cell viability (survival rate, IC50), SNU-719; assay type: cell-based; details: for Cancer cell line survival rate (%) / viability at 10 µM: SNU-719 (gastric cancer), compound 10 µM, 48 hours; for IC50: SNU719 (gastric cancer), 2.5-40 µM, positive control = doxorubicin; for viability at 10 µM: read-out: Cancer cell line survival rate (%)
Source text: as §1

MiaPaCa-2 = assay: alamarBlue cell viability (survival rate), MiaPaCa-2; assay type: cell-based; details: MiaPaCa-2 (pancreatic cancer), compound 10 µM, 48 hours; for viability at 10 µM: Homo sapiens, MIA PaCa-2, read-out: Cancer cell line survival rate (%)
Source text: as §1

SNU-C5 = assay: alamarBlue cell viability (survival rate, IC50), SNU-C5; assay type: cell-based; details: for Cancer cell line survival rate (%) / viability at 10 µM: SNU-C5 (colorectal cancer), compound 10 µM, 48 hours; for viability at 10 µM: read-out: Cancer cell line survival rate (%)
Source text: as §1

AGS = assay: alamarBlue cell viability (survival rate, IC50), AGS; assay type: cell-based; details: AGS (gastric cancer); for Cancer cell line survival rate (%) / viability at 10 µM: compound 10 µM, 48 hours; for IC50 / viability at 10 µM: Homo sapiens; for IC50: 2.5-40 µM, positive control = doxorubicin; for viability at 10 µM: read-out: Cancer cell line survival rate (%)
Source text: as §1

23132/87 = assay: alamarBlue cell viability (survival rate, IC50), 23132/87; assay type: cell-based; details: 23132/87 (gastric cancer); for Cancer cell line survival rate (%) / viability at 10 µM: compound 10 µM, 48 hours; for IC50: 2.5-40 µM, positive control = doxorubicin; for viability at 10 µM: read-out: Cancer cell line survival rate (%)
Source text: as §1

SNU-81 = assay: alamarBlue cell viability (survival rate, IC50), SNU-81; assay type: cell-based; details: for Cancer cell line survival rate (%) / viability at 10 µM: SNU-81 (colorectal cancer), compound 10 µM, 48 hours; for viability at 10 µM: read-out: Cancer cell line survival rate (%)
Source text: as §1

[1] = tested on: various cancer cell lines; assay: alamarBlue cell viability, statements across the cell line panel; details: for anticancer activity: various cancer cell lines; for cytotoxic effects: gastric cancer cell lines and colorectal cancer cell lines, 10 µM, 48 hours
Experimental: AGS, SW48, HepG2, and MiaPaCa-2 was purchased from ATCC (American Type Culture Collection, USA), SNU cell lines from the Korean Cell Line Bank (KCLB, Korea), and 23132/87 from the Leibniz Institute DSMZ - German Collection of Microorganisms and Cell Cultures GmbH (DSMZ, Germany). All cell lines were cultured in RPMI-1640 medium (HyClone, USA) supplemented with 10% FBS (Gibco, USA) and 1% penicillin-streptomycin (HyClone, USA) under conditions of 5% CO2, 37°C.
Cells were seeded at a density of 5 × 10^3cells/well in a 96-well plate for 24 hours, then treated with the compound at an appropriate concentration (10 µM) for 48 hours. After treatment, alamarBlue reagent was added at a volume ratio of 1/10 of the treatment volume and incubated for 4 hours in a 37°C cell incubator (protected from direct light). Cell viability was then determined by measuring absorbance values at 570 nm and 600 nm using a microplate reader. The anticancer effects of candidate compounds were evaluated by assessing the cell viability (%) of cells treated at specific concentrations and the half-maximal inhibitory concentration (IC50) of each natural product. Doxorubicin and oxaliplatin were used as positive controls for gastric and colorectal cancer, respectively.
Statistical analysis was performed using R software (version 4.2.2) (R Core Team). Differences between groups were assessed using student's t-test or 1-way ANOVA followed by post-hoc Tukey HSD test. A p-value < 0.05 was considered statistically significant.
Further, to measure the IC50 values against six cancer cell lines.

[2] = SNUC5 (colorectal cancer), 2.5-40 µM, positive control = oxaliplatin, read-out: IC50
[3] = SNU81 (colorectal cancer), 2.5-40 µM, positive control = oxaliplatin, read-out: IC50

SMILES | IC50 (SW48) [µM] | IC50 (SNU-719) [µM] | IC50 (SNU-C5; [2]) [µM] | IC50 (AGS) [µM] | IC50 (23132/87) [µM] | IC50 (SNU-81; [3]) [µM] | viability at 10 µM (SNU466) [%] | viability at 10 µM (SNU201) [%] | viability at 10 µM (HepG2) [%] | viability at 10 µM (SW48) [%] | viability at 10 µM (SNU-719) [%] | viability at 10 µM (MiaPaCa-2) [%] | viability at 10 µM (SNU-C5) [%] | viability at 10 µM (AGS) [%] | viability at 10 µM (23132/87) [%] | viability at 10 µM (SNU-81) [%] | anticancer activity [1] | also measured
C/C=C/c1ccc(O[C@H](C)[C@H](c2ccc(O)c(OC)c2)c2ccc(O)c(C(=O)CCCCCCCCc3ccc(O)c(O)c3)c2O)c(OC)c1 (relative stereo) [Compound 8, Myrifragranone A] | – | – | – | – | – | – | – | – | – | – | – | – | – | – | – | – | – | Cancer cell line survival rate (%) (SNU466): 93.39%; Cancer cell line survival rate (%) (SNU201): 108.12%; Cancer cell line survival rate (%) (HepG2): 95.41%; Cancer cell line survival rate (%) (SW48): 2.04%; Cancer cell line survival rate (%) (SNU-719): 2.27%; Cancer cell line survival rate (%) (MiaPaCa-2): 74.57%; Cancer cell line survival rate (%) (SNU-C5): 4.41%; Cancer cell line survival rate (%) (AGS): 2.19%; Cancer cell line survival rate (%) (23132/87): 3.92%; Cancer cell line survival rate (%) (SNU-81): 10.02%
C=CCc1cc(OC)c(O[C@H](C)[C@H](c2ccc(O)c(OC)c2)c2ccc(O)c(C(=O)CCCCCCCCc3ccc(O)c(O)c3)c2O)c(OC)c1 [Compound 1, Myricone A or Myrifragranone B, reference compound] | 4.3 | 3.99 | 6.32 | 4.07 | 4.09 | 14.6 | – | – | – | – | – | – | – | – | – | – | – | Cancer cell line survival rate (%) (SNU466): 1.7%; Cancer cell line survival rate (%) (SNU201): 2.07%; Cancer cell line survival rate (%) (HepG2): 2.07%; Cancer cell line survival rate (%) (SW48): 1.75%; Cancer cell line survival rate (%) (SNU-719): 3.95%; Cancer cell line survival rate (%) (MiaPaCa-2): 3.15%; Cancer cell line survival rate (%) (SNU-C5): 8.73%; Cancer cell line survival rate (%) (AGS): 1.13%; Cancer cell line survival rate (%) (23132/87): 4.71%; Cancer cell line survival rate (%) (SNU-81): 94.79%
C=CCc1cc(OC)c(O[C@H](C)[C@@H](c2ccc(O)c(OC)c2)c2ccc(O)c(C(=O)CCCCCCCCc3ccc(O)c(O)c3)c2O)c(OC)c1 [Compound 2, Myricone B] | 6.18 | 4.7 | 6.85 | 4.59 | 4.25 | 16.6 | 2.29 | 1.43 | 1.47 | 7.98 | 4.55 | 3.67 | 22.1 | 2.45 | 7.44 | 103 | – | –
C=CCc1cc(OC)c(O[C@H](C)[C@@H](c2ccc(O)c(OC)c2)c2ccc(O)c(C(=O)CCCCCCCCc3ccc(O)cc3)c2O)c(OC)c1 [Compound 4, Myricone D] | 5.73 | 5.01 | 5.57 | 7.27 | 4.14 | 16.9 | – | – | – | – | – | – | – | – | – | – | high anticancer activity | Cancer cell line survival rate (%) (SNU466): 1.74%; Cancer cell line survival rate (%) (SNU201): 2.44%; Cancer cell line survival rate (%) (HepG2): 1.84%; Cancer cell line survival rate (%) (SW48): 2.61%; Cancer cell line survival rate (%) (SNU-719): 10.19%; Cancer cell line survival rate (%) (MiaPaCa-2): 3.54%; Cancer cell line survival rate (%) (SNU-C5): 12.41%; Cancer cell line survival rate (%) (AGS): 10.15%; Cancer cell line survival rate (%) (23132/87): 8.41%; Cancer cell line survival rate (%) (SNU-81): 115.60%
C=CCc1ccc(O[C@H](C)[C@H](c2ccc(O)c(OC)c2)c2ccc(O)c(C(=O)CCCCCCCCc3ccc(O)c(O)c3)c2O)c(OC)c1 [Compound 5, Myricone E] | – | – | – | – | – | – | 0.58 | 0.61 | 2.34 | 10.2 | 45 | 1.64 | 37.6 | 42.1 | 52.1 | 126 | – | –
C=CCc1cc(OC)c(O[C@H](C)[C@H](c2ccc(O)c(OC)c2)c2cc(O)c(O)cc2CCCCCCCCC(=O)c2c(O)cccc2O)c(OC)c1 [Compound 6, Myricone F] | 3.09 | 2.58 | 4.04 | 3.35 | 2.39 | 10.3 | 1.96 | 1.4 | 1.32 | 0.82 | 1.36 | 2.16 | 3.53 | 0.51 | 1.46 | 55.8 | high anticancer activity | cytotoxic effects [1]: excellent cytotoxic effects
C=CCc1cc(OC)c(O[C@@H](C)[C@H](Oc2cc(CCCCCCCCC(=O)c3c(O)cccc3O)ccc2O)c2ccc(O)c(OC)c2)c(OC)c1 [Compound 10, Myricone K] | – | – | – | – | – | – | 0.6 | 3.28 | 8.7 | 2.67 | 1.85 | 4.3 | 4.94 | 4.14 | 2.77 | 16.1 | high anticancer activity | –
C=CCc1cc(OC)c(O[C@H](C)[C@H](Oc2cc(CCCCCCCCC(=O)c3c(O)cccc3O)ccc2O)c2ccc(O)c(OC)c2)c(OC)c1 [Compound 11, Myricone L] | – | – | – | – | – | – | 0.52 | 32.8 | 25.3 | 5.57 | 12.5 | 22 | 13.4 | 20.3 | 19 | 92.5 | high anticancer activity | cytotoxic effects [1]: excellent cytotoxic effects
C=CCc1cc(OC)c(OC(C)C(Oc2cccc(O)c2C(=O)CCCCCCCCc2ccc(O)cc2)c2ccc(O)c(OC)c2)c(OC)c1 (stereo not drawn) [Compound 12, Myricone M] | – | – | – | – | – | – | 0.64 | 0.75 | 1.23 | 2.52 | 0.53 | 3.46 | 1.98 | 7.89 | 0.67 | 2.27 | high anticancer activity | –
COc1cc([C@H]2Oc3c(OC)cc(/C=C/Cc4c(CCCCCCCCC(=O)c5c(O)cccc5O)ccc(O)c4O)cc3[C@@H]2C)ccc1O [Compound 18, Myricone T] | – | – | – | – | – | – | 86.2 | 104 | 89 | 83.5 | 104 | 74.8 | 78 | 91.9 | 87.1 | 102 | – | –
COc1cc([C@H]2Oc3c(OC)cc(/C=C/Cc4ccc(O)c(C(=O)CCCCCCCCc5ccc(O)c(O)c5)c4O)cc3[C@@H]2C)ccc1O [Compound 19, Myricone X] | – | – | – | – | – | – | 80.9 | 107 | 52.4 | 69.7 | 108 | 56.9 | 69.6 | 84.5 | 89.3 | 102 | – | –
O=C(CCCCCCCCc1cc(O)c(O)cc1-c1ccc(O)c(C(=O)CCCCCCCCc2ccc(O)c(O)c2)c1O)c1c(O)cccc1O [Compound 26, Giganteones A, reference compound] | 2.77 | 4.6 | 3.72 | 1.71 | 4.08 | 8.94 | – | – | – | – | – | – | – | – | – | – | – | anticancer activity (comparison of IC50 values among compounds) ([1]; six cancer cell lines, 2.5-40 µM): overall superior activity to Myrifragranone B and Malabaricone C
O=C1[O][Pt]2([NH][C@@H]3CCCC[C@H]3[NH]2)[O]C1=O [oxaliplatin, reference compound] | – | – | – | – | – | – | – | – | – | – | – | – | – | – | – | – | – | IC50 (SNU-C5; SNUC5 cells, compound 2.5-40 µM, read-out: IC50 values): 12.6 µM; IC50 (SNU-81; SNU81 cells, compound 2.5-40 µM, read-out: IC50 values): 41.5 µM
